Results published in patent publication US10442807B2, “Aryl substituted bicyclic compounds as herbicides” (FMC Corporation, priority 2015, dated 2019).

Key:
Assay type in all cases: in vivo
[1] = system: barnyardgrass (Echinochloa crus-galli); test: Test A preemergence, directed soil spray, visual injury rating; conditions: approx. 10 d, 0 = no effect, 100 = complete control
Procedure, shortened: (§1)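 In a loam soil and sand blend, either planted seeds got a preemergence directed soil spray or plants at the one- to two-leaf stage (2 to 10 cm tall) were sprayed, using test chemicals in a non-phytotoxic solvent mixture with surfactant. After about 10 d in a greenhouse, injury was visually rated against untreated controls on a 0-100 scale.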

[2] = system: foxtail, giant (giant foxtail, Setaria faberii); test: as above; conditions: approx. 10 d, 0 = no effect, 100 = complete control
Procedure, shortened: as §1

[3] = system: kochia (Kochia scoparia); test: as above; conditions: approx. 10 d, 0 = no effect, 100 = complete control
Procedure, shortened: as §1

[4] = system: pigweed (Amaranthus retroflexus); test: as above; conditions: approx. 10 d, 0 = no effect, 100 = complete control
Procedure, shortened: as §1

[5] = system: ragweed (common ragweed, Ambrosia elation); test: as above; conditions: approx. 10 d, 0 = no effect, 100 = complete control
Procedure, shortened: as §1

[6] = system: ryegrass, Italian (Italian ryegrass, Lolium multiflorum); test: as above; conditions: approx. 10 d, 0 = no effect, 100 = complete control
Procedure, shortened: as §1

[7] = system: barnyardgrass (Echinochloa crus-galli); test: Test A postemergence application, visual injury rating; conditions: approx. 10 d, 0 = no effect, 100 = complete control
Procedure, shortened: as §1

[8] = system: blackgrass (Alopecurus myosuroides); test: as above; conditions: approx. 10 d, 0 = no effect, 100 = complete control
Procedure, shortened: as §1

[9] = system: corn (Zea mays); test: as above; conditions: approx. 10 d, 0 = no effect, 100 = complete control
Procedure, shortened: as §1

[10] = system: foxtail, giant (giant foxtail, Setaria faberii); test: as above; conditions: approx. 10 d, 0 = no effect, 100 = complete control
Procedure, shortened: as §1

[11] = system: galium (catchweed bedstraw, Galium aparine); test: as above; conditions: approx. 10 d, 0 = no effect, 100 = complete control
Procedure, shortened: as §1

[12] = system: kochia (Kochia scoparia); test: as above; conditions: approx. 10 d, 0 = no effect, 100 = complete control
Procedure, shortened: as §1

[13] = system: pigweed (Amaranthus retroflexus); test: as above; conditions: approx. 10 d, 0 = no effect, 100 = complete control
Procedure, shortened: as §1

[14] = system: ragweed (common ragweed, Ambrosia elation); test: as above; conditions: approx. 10 d, 0 = no effect, 100 = complete control
Procedure, shortened: as §1

[15] = system: ryegrass, Italian (Italian ryegrass, Lolium multiflorum); test: as above; conditions: approx. 10 d, 0 = no effect, 100 = complete control
Procedure, shortened: as §1

[16] = system: wheat (Triticum aestivum); test: as above; conditions: approx. 10 d, 0 = no effect, 100 = complete control
Procedure, shortened: as §1

[17] = system: barnyardgrass (Echinochloa crus-galli); test: Test B flooded paddy test, visual plant response rating; conditions: 250 g ai/ha; applied to paddy water at 2-leaf stage; rated after 13 to 15 days; scale 0 to 100, 0 is no effect, 100 is complete control
Procedure, shortened: (§2)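 Water stood 3 cm above the soil when compounds were applied into it, and it was kept there for the whole test. After 13 to 15 days in the greenhouse, plants were compared with controls and rated visually from 0 (no effect) to 100 (complete control).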

[18] = system: ducksalad (Heteranthera limosa); test: as above; conditions: 250 g ai/ha; applied to paddy water at 2-leaf stage; rated after 13 to 15 days; scale 0 to 100, 0 is no effect, 100 is complete control
Procedure, shortened: as §2

[19] = system: rice (Oryza sativa); test: as above; conditions: 250 g ai/ha; applied to paddy water at 2-leaf stage; rated after 13 to 15 days; scale 0 to 100, 0 is no effect, 100 is complete control
Procedure, shortened: as §2

[20] = system: sedge, umbrella (small-flower umbrella sedge, Cyperus difformis); test: as above; conditions: 250 g ai/ha; applied to paddy water at 2-leaf stage; rated after 13 to 15 days; scale 0 to 100, 0 is no effect, 100 is complete control
Procedure, shortened: as §2

Structure (SMILES) | Barnyardgrass plant response rating (0 to 100 scale) ([1]; 125 g ai/ha) | Barnyardgrass plant response rating (0 to 100 scale) ([1]; 500 g ai/ha) | Foxtail, Giant plant response rating (0 to 100 scale) ([2]; 125 g ai/ha) | Foxtail, Giant plant response rating (0 to 100 scale) ([2]; 500 g ai/ha) | Kochia plant response rating (0 to 100 scale) ([3]; 125 g ai/ha) | Kochia plant response rating (0 to 100 scale) ([3]; 500 g ai/ha) | Pigweed plant response rating (0 to 100 scale) ([4]; 125 g ai/ha) | Pigweed plant response rating (0 to 100 scale) ([4]; 500 g ai/ha) | Ragweed plant response rating (0 to 100 scale) ([5]; 125 g ai/ha) | Ragweed plant response rating (0 to 100 scale) ([5]; 500 g ai/ha) | Ryegrass, Italian plant response rating (0 to 100 scale) ([6]; 125 g ai/ha) | Ryegrass, Italian plant response rating (0 to 100 scale) ([6]; 500 g ai/ha) | Barnyardgrass plant response rating (0 to 100 scale) ([7]; 125 g ai/ha) | Barnyardgrass plant response rating (0 to 100 scale) ([7]; 500 g ai/ha) | Blackgrass plant response rating (0 to 100 scale) ([8]; 125 g ai/ha) | Blackgrass plant response rating (0 to 100 scale) ([8]; 500 g ai/ha) | Corn plant response rating (0 to 100 scale) ([9]; 125 g ai/ha) | Corn plant response rating (0 to 100 scale) ([9]; 500 g ai/ha) | Foxtail, Giant plant response rating (0 to 100 scale) ([10]; 125 g ai/ha) | Foxtail, Giant plant response rating (0 to 100 scale) ([10]; 500 g ai/ha) | further results
CCCc1nnc2n1CC(c1ccc(C(F)(F)F)cc1)C2C(=O)Nc1cccc(F)c1F (stereo not drawn) [Compound 17] | 0 | 50 | 30 | 90 | 0 | 30 | 0 | 20 | 0 | 0 | 0 | 0 | 0 | 30 | 0 | 20 | 0 | 0 | 0 | 30 | Galium plant response rating (0 to 100 scale) ([11]; 125 g ai/ha): 40; Galium plant response rating (0 to 100 scale) ([11]; 500 g ai/ha): 50; Kochia plant response rating (0 to 100 scale) ([12]; 125 g ai/ha): 20; Kochia plant response rating (0 to 100 scale) ([12]; 500 g ai/ha): 50; Pigweed plant response rating (0 to 100 scale) ([13]; 125 g ai/ha): 0; Pigweed plant response rating (0 to 100 scale) ([13]; 500 g ai/ha): 40; Ragweed plant response rating (0 to 100 scale) ([14]; 125 g ai/ha): 0; Ragweed plant response rating (0 to 100 scale) ([14]; 500 g ai/ha): 0; Ryegrass, Italian plant response rating (0 to 100 scale) ([15]; 125 g ai/ha): 0; Ryegrass, Italian plant response rating (0 to 100 scale) ([15]; 500 g ai/ha): 0; Wheat plant response rating (0 to 100 scale) ([16]; 125 g ai/ha): 0; Wheat plant response rating (0 to 100 scale) ([16]; 500 g ai/ha): 0; Plant response rating, Flood, Barnyardgrass [17]: 0; Plant response rating, Flood, Ducksalad [18]: 30; Plant response rating, Flood, Rice [19]: 0; Plant response rating, Flood, Sedge, Umbrella [20]: 0
CSc1ccccc1NC(=O)C1c2nncn2CC1c1ccc(C)c(C)c1 (stereo not drawn) [Compound 18] | 20 | 60 | 0 | 80 | 0 | 0 | 0 | 0 | 0 | 30 | 0 | 20 | 0 | 30 | 0 | 0 | 0 | 0 | 0 | 20 | Galium plant response rating (0 to 100 scale) ([11]; 125 g ai/ha): 20; Galium plant response rating (0 to 100 scale) ([11]; 500 g ai/ha): 20; Kochia plant response rating (0 to 100 scale) ([12]; 125 g ai/ha): 20; Kochia plant response rating (0 to 100 scale) ([12]; 500 g ai/ha): 20; Pigweed plant response rating (0 to 100 scale) ([13]; 125 g ai/ha): 0; Pigweed plant response rating (0 to 100 scale) ([13]; 500 g ai/ha): 0; Ragweed plant response rating (0 to 100 scale) ([14]; 125 g ai/ha): 0; Ragweed plant response rating (0 to 100 scale) ([14]; 500 g ai/ha): 0; Ryegrass, Italian plant response rating (0 to 100 scale) ([15]; 125 g ai/ha): 0; Ryegrass, Italian plant response rating (0 to 100 scale) ([15]; 500 g ai/ha): 0; Wheat plant response rating (0 to 100 scale) ([16]; 125 g ai/ha): 0; Wheat plant response rating (0 to 100 scale) ([16]; 500 g ai/ha): 0; Plant response rating, Flood, Barnyardgrass [17]: 0; Plant response rating, Flood, Ducksalad [18]: 40; Plant response rating, Flood, Rice [19]: 0; Plant response rating, Flood, Sedge, Umbrella [20]: 0
Cc1ccc(C2Cn3c(C)nnc3C2C(=O)Nc2cccc(F)c2F)cc1C (stereo not drawn) [Compound 19] | 50 | 90 | 70 | 90 | 0 | 30 | 0 | 0 | 0 | 0 | 0 | 20 | 60 | 90 | 0 | 70 | 0 | 30 | 30 | 80 | Galium plant response rating (0 to 100 scale) ([11]; 125 g ai/ha): 0; Galium plant response rating (0 to 100 scale) ([11]; 500 g ai/ha): 50; Kochia plant response rating (0 to 100 scale) ([12]; 125 g ai/ha): 0; Kochia plant response rating (0 to 100 scale) ([12]; 500 g ai/ha): 20; Pigweed plant response rating (0 to 100 scale) ([13]; 125 g ai/ha): 0; Pigweed plant response rating (0 to 100 scale) ([13]; 500 g ai/ha): 0; Ragweed plant response rating (0 to 100 scale) ([14]; 125 g ai/ha): 0; Ragweed plant response rating (0 to 100 scale) ([14]; 500 g ai/ha): 20; Ryegrass, Italian plant response rating (0 to 100 scale) ([15]; 125 g ai/ha): 0; Ryegrass, Italian plant response rating (0 to 100 scale) ([15]; 500 g ai/ha): 20; Wheat plant response rating (0 to 100 scale) ([16]; 125 g ai/ha): 0; Wheat plant response rating (0 to 100 scale) ([16]; 500 g ai/ha): 30; Plant response rating, Flood, Barnyardgrass [17]: 30; Plant response rating, Flood, Ducksalad [18]: 20; Plant response rating, Flood, Rice [19]: 0; Plant response rating, Flood, Sedge, Umbrella [20]: 0
O=C(Nc1ccccc1F)C1c2nncn2CC1c1ccc(Cl)cc1 (stereo not drawn) [Compound 20] | 20 | 70 | 30 | 90 | 30 | 90 | 0 | 0 | 0 | 50 | 0 | 0 | 20 | 60 | 0 | 0 | 20 | 80 | 20 | 70 | Galium plant response rating (0 to 100 scale) ([11]; 125 g ai/ha): 30; Galium plant response rating (0 to 100 scale) ([11]; 500 g ai/ha): 50; Kochia plant response rating (0 to 100 scale) ([12]; 125 g ai/ha): 0; Kochia plant response rating (0 to 100 scale) ([12]; 500 g ai/ha): 40; Pigweed plant response rating (0 to 100 scale) ([13]; 125 g ai/ha): 0; Pigweed plant response rating (0 to 100 scale) ([13]; 500 g ai/ha): 0; Ragweed plant response rating (0 to 100 scale) ([14]; 125 g ai/ha): 0; Ragweed plant response rating (0 to 100 scale) ([14]; 500 g ai/ha): 20; Ryegrass, Italian plant response rating (0 to 100 scale) ([15]; 125 g ai/ha): 0; Ryegrass, Italian plant response rating (0 to 100 scale) ([15]; 500 g ai/ha): 0; Wheat plant response rating (0 to 100 scale) ([16]; 125 g ai/ha): 0; Wheat plant response rating (0 to 100 scale) ([16]; 500 g ai/ha): 20; Plant response rating, Flood, Barnyardgrass [17]: 40; Plant response rating, Flood, Ducksalad [18]: 70; Plant response rating, Flood, Rice [19]: 0; Plant response rating, Flood, Sedge, Umbrella [20]: 0
